What was measured:
Experiment in all cases: Radiometric protein kinase assay (33PanQinase), Assay Condition A (thiol containing)
Assay type in all cases: biochemical
CDK12 wt/CycK = CDK12 wt/CycK (Homo sapiens (Human), UniProt Q9NYV4); settings: thiol containing (1.2 mM DTT), ATP 0.3 μM
Procedure: (§1) The IC50 profile of test compounds was determined using three protein kinases.
(§2) The compounds were provided as pre-weighed powders in vials. The compounds were dissolved to 1×10^−02M by adding DMSO. 100 μl of each of the resulting stock solutions were transferred into column 2 of four 96 well “master plates”.
(§3) Prior to testing, the 1×10^−02M stock solutions in column 2 of the master plates were subjected to a serial, semi-logarithmic dilution using 100% DMSO as a solvent. […] Column 1 and 7 were filled with 100% DMSO as controls. Subsequently, 2×10 μl from each well of the serial diluted copy plates were aliquoted with a 96 channel pipettor into two identical sets of “compound dilution plates”.
(§4) In the process, 90 μl H2O were added to each well of a set of compound dilution plates. To minimize potential precipitation, the H2O was added to each plate only a few minutes before the transfer of the compound solutions into the assay plates. Each plate was shaken thoroughly, resulting in a “compound dilution plate/10% DMSO”.
(§5) For the assays, 5 μl solution from each well of the compound dilution plates/10% DMSO were transferred into the assay plates. The final volume of the assay was 50 μl. All compounds were tested at 10 final assay concentrations in the range from 1×10^−04M to 3×10^−09M, in singlicate. The final DMSO concentration in the reaction cocktails was 1% in all cases.
(§6) All protein kinases were expressed in Sf9 insect cells or in E. coli as recombinant GST-fusion proteins or His-tagged proteins, either as full-length or enzymatically active fragments. All kinases were produced from human cDNAs and purified by either GSH-affinity chromatography or immobilized metal. Affinity tags were removed from a number of kinases during purification. The purity of the protein kinases was examined by SDS-PAGE/Coomassie staining, the identity was checked by mass spectroscopy.
(§7) A radiometric protein kinase assay (^33PanQinase® Activity Assay) was used for measuring the kinase activity of the three protein kinases. All kinase assays were performed in 96-well FlashPlates™ from PerkinElmer (Boston, Mass., USA) in a 50 μl reaction volume. The reaction cocktail was pipetted in four steps in the following order: • 20 μl of assay buffer (standard buffer) • 5 μl of ATP solution (in H2O) • 5 μl of test compound (in 10% DMSO) • 20 μl enzyme/substrate mix
(§8) The reaction cocktails were incubated at 30° C. for 60 minutes. The reaction was stopped with 50 μl of 2% (v/v) H3PO4, plates were aspirated and washed two times with 200 μl 0.9% (w/v) NaCl. Incorporation of ^33Pi was determined with a microplate scintillation counter (Microbeta, Wallac). All assays were performed with a BeckmanCoulter/SAGIAN™ Core System.
(§9) The median value of the counts in column 1 (n=8) of each assay plate was defined as “low control”. This value reflects unspecific binding of radioactivity to the plate in the absence of a protein kinase but in the presence of the substrate. The median value of the counts in column 7 of each assay plate (n=8) was taken as the “high control”, i.e. full activity in the absence of any inhibitor. The difference between high and low control was taken as 100% activity.
(§10) As part of the data evaluation the low control value from a particular plate was subtracted from the high control value as well as from all 80 “compound values” of the corresponding plate. The residual activity (in %) for each well of a particular plate was calculated by using the following formula: Res. Activity (%)=100×[(cpm of compound−low control)/(high control−low control)]
(§11) The residual activities for each concentration and the compound IC50 values were calculated using Quattro Workflow V3.1.1 (Quattro Research GmbH, Munich, Germany). […] The fitting method used was a least-squares fit.

CDK2/CycA2 = CDK2/CycA2 (Homo sapiens (Human), UniProt P24941); settings: thiol containing (1.2 mM DTT), ATP 0.3 μM
Procedure: as §1, §2, §3, §4, §5, §6, §7, §8, §9, §10, §11

CDK7/CycH/MAT1 = CDK7/CycH/MAT1 (Homo sapiens (Human), UniProt P50613); settings: thiol containing (1.2 mM DTT), ATP 3.0 μM
Procedure: as §1, §2, §3, §4, §5, §6, §7, §8, §9, §10, §11

Sequence of CDK7/CycH/MAT1 (P50613 whole entry): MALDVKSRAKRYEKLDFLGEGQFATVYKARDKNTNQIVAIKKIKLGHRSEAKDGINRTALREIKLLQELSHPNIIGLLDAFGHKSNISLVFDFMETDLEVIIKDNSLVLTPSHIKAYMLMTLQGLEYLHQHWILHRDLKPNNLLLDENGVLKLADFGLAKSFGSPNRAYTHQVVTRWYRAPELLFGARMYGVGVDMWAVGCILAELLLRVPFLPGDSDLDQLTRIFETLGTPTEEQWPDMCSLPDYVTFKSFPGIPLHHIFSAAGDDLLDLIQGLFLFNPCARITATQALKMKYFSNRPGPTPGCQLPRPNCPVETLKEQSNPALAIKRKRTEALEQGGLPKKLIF
Sequence of CDK7/CycH/MAT1 (P51946 whole entry partner): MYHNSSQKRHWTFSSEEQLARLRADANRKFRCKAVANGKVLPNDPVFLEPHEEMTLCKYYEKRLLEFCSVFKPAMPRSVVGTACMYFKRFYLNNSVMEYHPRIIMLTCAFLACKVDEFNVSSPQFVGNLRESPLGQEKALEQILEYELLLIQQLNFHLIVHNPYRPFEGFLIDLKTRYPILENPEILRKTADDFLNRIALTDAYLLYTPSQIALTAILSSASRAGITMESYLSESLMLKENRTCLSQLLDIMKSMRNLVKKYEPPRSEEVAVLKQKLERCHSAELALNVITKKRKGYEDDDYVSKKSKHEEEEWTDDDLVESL
Sequence of CDK7/CycH/MAT1 (P51948 whole entry partner): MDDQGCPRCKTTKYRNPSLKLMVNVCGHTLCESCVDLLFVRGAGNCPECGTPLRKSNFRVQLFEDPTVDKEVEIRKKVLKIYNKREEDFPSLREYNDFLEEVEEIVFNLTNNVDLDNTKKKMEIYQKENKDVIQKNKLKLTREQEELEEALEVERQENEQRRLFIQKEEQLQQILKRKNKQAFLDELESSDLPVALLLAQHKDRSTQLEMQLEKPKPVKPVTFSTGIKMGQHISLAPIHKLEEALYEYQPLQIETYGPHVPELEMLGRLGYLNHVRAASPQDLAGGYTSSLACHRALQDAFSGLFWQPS
Sequence of CDK12 wt/CycK (Q9NYV4 whole entry): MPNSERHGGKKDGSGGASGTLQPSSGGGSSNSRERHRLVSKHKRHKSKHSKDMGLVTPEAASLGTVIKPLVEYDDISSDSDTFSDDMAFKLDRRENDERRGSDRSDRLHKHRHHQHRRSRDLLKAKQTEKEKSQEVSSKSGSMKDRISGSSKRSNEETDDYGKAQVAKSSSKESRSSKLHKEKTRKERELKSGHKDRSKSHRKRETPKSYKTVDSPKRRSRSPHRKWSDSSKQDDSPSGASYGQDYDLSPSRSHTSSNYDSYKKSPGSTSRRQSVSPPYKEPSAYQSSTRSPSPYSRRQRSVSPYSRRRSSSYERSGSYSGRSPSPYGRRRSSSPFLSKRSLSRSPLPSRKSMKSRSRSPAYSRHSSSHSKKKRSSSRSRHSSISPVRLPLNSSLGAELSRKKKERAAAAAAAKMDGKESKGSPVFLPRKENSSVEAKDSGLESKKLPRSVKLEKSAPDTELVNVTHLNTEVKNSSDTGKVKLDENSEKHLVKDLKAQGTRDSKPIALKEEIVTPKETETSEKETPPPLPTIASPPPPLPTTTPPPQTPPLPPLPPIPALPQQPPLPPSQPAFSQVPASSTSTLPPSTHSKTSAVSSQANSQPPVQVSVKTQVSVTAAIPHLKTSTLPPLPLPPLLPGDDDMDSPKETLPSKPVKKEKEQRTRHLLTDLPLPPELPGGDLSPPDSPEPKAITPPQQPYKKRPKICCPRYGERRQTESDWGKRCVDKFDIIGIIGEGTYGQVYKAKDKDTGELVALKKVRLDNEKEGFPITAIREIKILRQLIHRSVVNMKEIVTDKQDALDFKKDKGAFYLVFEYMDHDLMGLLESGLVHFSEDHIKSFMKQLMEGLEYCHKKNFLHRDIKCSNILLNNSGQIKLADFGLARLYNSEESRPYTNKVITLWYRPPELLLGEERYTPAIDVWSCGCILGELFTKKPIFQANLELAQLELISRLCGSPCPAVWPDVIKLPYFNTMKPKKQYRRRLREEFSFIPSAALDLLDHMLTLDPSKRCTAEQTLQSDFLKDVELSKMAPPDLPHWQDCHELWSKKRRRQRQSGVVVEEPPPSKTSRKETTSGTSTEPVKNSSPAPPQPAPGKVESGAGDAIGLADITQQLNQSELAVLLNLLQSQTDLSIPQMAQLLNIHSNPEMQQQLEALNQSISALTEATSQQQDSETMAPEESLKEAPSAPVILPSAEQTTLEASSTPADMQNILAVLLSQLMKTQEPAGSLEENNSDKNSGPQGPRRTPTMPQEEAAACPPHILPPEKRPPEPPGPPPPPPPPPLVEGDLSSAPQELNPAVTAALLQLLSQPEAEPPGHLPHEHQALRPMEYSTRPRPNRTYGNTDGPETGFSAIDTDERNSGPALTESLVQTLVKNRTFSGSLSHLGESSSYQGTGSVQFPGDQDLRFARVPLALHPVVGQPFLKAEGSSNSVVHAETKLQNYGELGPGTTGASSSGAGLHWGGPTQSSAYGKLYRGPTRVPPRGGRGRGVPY
Sequence of CDK12 wt/CycK (O75909 whole entry partner): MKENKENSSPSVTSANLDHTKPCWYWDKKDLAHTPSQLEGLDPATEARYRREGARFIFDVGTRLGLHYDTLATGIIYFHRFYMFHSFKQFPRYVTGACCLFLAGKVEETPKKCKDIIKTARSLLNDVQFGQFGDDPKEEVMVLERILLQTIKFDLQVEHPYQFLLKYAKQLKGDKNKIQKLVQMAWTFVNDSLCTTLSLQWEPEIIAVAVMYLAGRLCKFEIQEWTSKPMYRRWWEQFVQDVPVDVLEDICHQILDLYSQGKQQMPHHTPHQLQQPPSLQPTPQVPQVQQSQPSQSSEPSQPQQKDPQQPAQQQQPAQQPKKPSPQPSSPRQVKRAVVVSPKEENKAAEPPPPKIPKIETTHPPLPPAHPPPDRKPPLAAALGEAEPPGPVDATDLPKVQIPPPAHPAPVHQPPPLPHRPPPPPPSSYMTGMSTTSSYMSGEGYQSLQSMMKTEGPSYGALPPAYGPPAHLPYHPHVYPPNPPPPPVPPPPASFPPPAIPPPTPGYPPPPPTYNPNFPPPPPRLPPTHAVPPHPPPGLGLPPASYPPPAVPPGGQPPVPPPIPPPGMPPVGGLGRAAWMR

Structure (SMILES) | IC50 (CDK12 wt/CycK) | IC50 (CDK2/CycA2) | IC50 (CDK7/CycH/MAT1)
C=CC(=O)Nc1ccc(C(=O)N2CC[C@@H](Nc3ncc4ccc(C(N)=O)cc4n3)C2)cc1 [Example 39, (R)-2-((1-(4-acrylamidobenzoyl)pyrrolidin-3-yl)amino)quinazoline-7-carboxamide] | ≤ 100 nM | ≤ 100 nM | 100 to 1000 nM
C=CC(=O)Nc1ccc(C(=O)N2CC[C@@H](Nc3ncc4ccc(C(=O)NC)cc4n3)C2)cc1 [Example 40, (R)-2-((1-(4-acrylamidobenzoyl)pyrrolidin-3-yl)amino)-N-methylquinazoline-7-carboxamide] | ≤ 100 nM | ≤ 100 nM | 100 to 1000 nM
C=CC(=O)Nc1ccc(C(=O)N2CC[C@@H](Nc3ncc4ccc(C(=O)N(C)C)cc4n3)C2)cc1 [Example 41, (R)-2-((1-(4-acrylamidobenzoyl)pyrrolidin-3-yl)amino)-N,N-dimethylquinazoline-7-carboxamide] | ≤ 100 nM | 100 to 1000 nM | 1000 to 10000 nM
C=CC(=O)Nc1ccc(C(=O)N2CC[C@@H](Nc3ncc4ccc(=O)[nH]c4n3)C2)cc1 [Example 42, (R)—N-(4-(3-((7-oxo-7,8-dihydropyrido[2,3-d]pyrimidin-2-yl)amino)pyrrolidine-1-carbonyl)phenyl)acrylamide] | ≤ 100 nM | 100 to 1000 nM | 1000 to 10000 nM
CCC(=O)Nc1ccc(C(=O)N2CC[C@@H](Nc3cc4ccccc4cn3)C2)cc1 [Example 45, (R)—N-(4-(3-(isoquinolin-3-ylamino)pyrrolidine-1-carbonyl)phenyl)propionamide] | 100 to 1000 nM | 1000 to 10000 nM | 1000 to 10000 nM
CCC(=O)Nc1ccc(C(=O)N2CC[C@@H](Nc3ncc4cc(F)ccc4n3)C2)cc1 [Example 46, (R)—N-(4-(3-((6-fluoroquinazolin-2-yl)amino)pyrrolidine-1-carbonyl)phenyl)propionamide] | 100 to 1000 nM | 1000 to 10000 nM | 1000 to 10000 nM
CCC(=O)Nc1ccc(C(=O)N2CC[C@@H](Nc3ncc4cc(Cl)ccc4n3)C2)cc1 [Example 47, (R)—N-(4-(3-((6-chloroquinazolin-2-yl)amino)pyrrolidine-1-carbonyl)phenyl)propionamide] | 100 to 1000 nM | 1000 to 10000 nM | 1000 to 10000 nM
CCC(=O)Nc1ccc(C(=O)N2CC[C@@H](Nc3ncc4cc(OC)ccc4n3)C2)cc1 [Example 48, (R)—N-(4-(3-((6-methoxyquinazolin-2-yl)amino)pyrrolidine-1-carbonyl)phenyl)propionamide] | 1000 to 10000 nM | 10000 to 30000 nM | 30000 to 100000 nM
CCC(=O)Nc1ccc(C(=O)N2CC[C@@H](Nc3ncc4cc(C)ccc4n3)C2)cc1 [Example 49, (R)—N-(4-(3-((6-methylquinazolin-2-yl)amino)pyrrolidine-1-carbonyl)phenyl)propionamide] | 1000 to 10000 nM | 1000 to 10000 nM | 1000 to 10000 nM
CCC(=O)Nc1ccc(C(=O)N2CC[C@@H](Nc3ncc4ccncc4n3)C2)cc1 [Example 50, (R)—N-(4-(3-(pyrido[3,4-d]pyrimidin-2-ylamino)pyrrolidine-1-carbonyl)phenyl)propionamide] | 100 to 1000 nM | 1000 to 10000 nM | 1000 to 10000 nM
CCC(=O)Nc1ccc(C(=O)N2CC[C@@H](Nc3ncc4ccc(OC)cc4n3)C2)cc1 [Example 51, (R)—N-(4-(3-((7-methoxyquinazolin-2-yl)amino)pyrrolidine-1-carbonyl)phenyl)propionamide] | 100 to 1000 nM | 100 to 1000 nM | 100 to 1000 nM
CN(C)C/C=C/C(=O)Nc1ccc(C(=O)N2CC[C@@H](Nc3ncc4ccccc4n3)C2)cc1 [Example 65, (R,E)-4-(dimethylamino)-N-(4-(3-(quinazolin-2-ylamino)pyrrolidine-1-carbonyl)phenyl)but-2-enamide] | 100 to 1000 nM | 100 to 1000 nM | 100 to 1000 nM
CN(C)C/C=C/C(=O)Nc1ccc(C(=O)N2CCC[C@@H](Nc3ncc4ccccc4n3)C2)cc1 [Example 66, (R,E)-4-(dimethylamino)-N-(4-(3-(quinazolin-2-ylamino)piperidine-1-carbonyl)phenyl)but-2-enamide] | 1000 to 10000 nM | 30000 to 100000 nM | 30000 to 100000 nM

Further lines, results first:

IC50 (CDK12 wt/CycK) | IC50 (CDK2/CycA2) | IC50 (CDK7/CycH/MAT1) | Structure (SMILES)
100 to 1000 nM | 100 to 1000 nM | 1000 to 10000 nM | CCC(=O)Nc1ccc(C(=O)N2CC[C@@H](Nc3ncc4ccc(S(C)(=O)=O)cc4n3)C2)cc1 [Example 52, (R)—N-(4-(3-((7-(methylsulfonyl)quinazolin-2-yl)amino)pyrrolidine-1-carbonyl)phenyl)propionamide]
100 to 1000 nM | 100 to 1000 nM | 1000 to 10000 nM | CCC(=O)Nc1ccc(C(=O)N2CC[C@@H](Nc3ncc4ccc(Cl)cc4n3)C2)cc1 [Example 53, (R)—N-(4-(3-((7-chloroquinazolin-2-yl)amino)pyrrolidine-1-carbonyl)phenyl)propionamide]
100 to 1000 nM | 1000 to 10000 nM | 1000 to 10000 nM | CCC(=O)Nc1ccc(C(=O)N2CC[C@@H](Nc3ncc4ccc(F)cc4n3)C2)cc1 [Example 54, (R)—N-(4-(3-((7-fluoroquinazolin-2-yl)amino)pyrrolidine-1-carbonyl)phenyl)propionamide]
100 to 1000 nM | 100 to 1000 nM | 1000 to 10000 nM | CCC(=O)Nc1ccc(C(=O)N2CC[C@@H](Nc3ncc4ccc(C#N)cc4n3)C2)cc1 [Example 55, (R)—N-(4-(3-((7-cyanoquinazolin-2-yl)amino)pyrrolidine-1-carbonyl)phenyl)propionamide]
≤ 100 nM | ≤ 100 nM | 100 to 1000 nM | CCC(=O)Nc1ccc(C(=O)N2CC[C@@H](Nc3ncc4ccc(C(=O)O)cc4n3)C2)cc1 [Example 56, (R)-2-((1-(4-propionamidobenzoyl)pyrrolidin-3-yl)amino)quinazoline-7-carboxylic Acid]
≤ 100 nM | ≤ 100 nM | ≤ 100 nM | CCC(=O)Nc1ccc(C(=O)N2CC[C@@H](Nc3ncc4ccc(C(N)=O)cc4n3)C2)cc1 [Example 57, (R)-2-((1-(4-propionamidobenzoyl)pyrrolidin-3-yl)amino)quinazoline-7-carboxamide]
≤ 100 nM | ≤ 100 nM | 100 to 1000 nM | CCC(=O)Nc1ccc(C(=O)N2CC[C@@H](Nc3ncc4ccc(C(=O)N(C)C)cc4n3)C2)cc1 [Example 59, (R)—N,N-dimethyl-2-((1-(4-propionamidobenzoyl)pyrrolidin-3-yl)amino)quinazoline-7-carboxamide]
≤ 100 nM | 1000 to 10000 nM | 1000 to 10000 nM | CCC(=O)Nc1ccc(C(=O)N2CC[C@@H](Nc3ncc4ccc(=O)[nH]c4n3)C2)cc1 [Example 60, (R)—N-(4-(3-((7-oxo-7,8-dihydropyrido[2,3-d]pyrimidin-2-yl)amino)pyrrolidine-1-carbonyl)phenyl)propionamide]
100 to 1000 nM | 10000 to 30000 nM | 1000 to 10000 nM | C=CC(=O)Nc1ccc(C(=O)N2C[C@H](Nc3ncc4ccccc4n3)[C@@H](F)C2)cc1 [Example 63, N-(4-((3S,4S)-3-fluoro-4-(quinazolin-2-ylamino)pyrrolidine-1-carbonyl)phenyl)acrylamide]
1000 to 10000 nM | 1000 to 10000 nM | 10000 to 30000 nM | C=CC(=O)Nc1ccc(C(=O)N2CC(Nc3ncc4ccccc4n3)C2)cc1 [Example 64, N-(4-(3-(quinazolin-2-ylamino)azetidine-1-carbonyl)phenyl)acrylamide]
1000 to 10000 nM | 10000 to 30000 nM | 10000 to 30000 nM | C=CC(=O)Nc1c(C)cc(C(=O)N2CC[C@@H](Nc3ncc4ccccc4n3)C2)cc1F [Example 75, (R)—N-(2-fluoro-6-methyl-4-(3-(quinazolin-2-ylamino)pyrrolidine-1-carbonyl)phenyl)acrylamide]
